# Test results taken from patent US7994307B2, “RNAi modulation of the BCR-ABL fusion gene and uses thereof” (Alnylam Pharmaceuticals, Inc., priority 2004, dated 2011).
# “Also recorded” adds a separate entry of the source. Structures can show the parent of a compound that is named as a salt.
# Legend:
# [1] = system: 32Dp190/e1a2 cells; experiment: MTT viability assay in 32Dp190/e1a2 cells; format: cell-based, murine
# Experimental: (§1) FIGS. 2A-2B: ˜5 Mio 32Dp190/e1a2 cells have been electroporated twice at intervals of 24 h with the indicated siRNA. BAF22/BAF24: bcr-abl-e1a2-specific siRNAs; BAF9: bcr-abl-e14a2-specific siRNA, served as control; BAF19: bcr-abl-e13a2-specific siRNA, served as control; EPC: electroporation control. FIG. 2A: Western blot analysis of p190^Bcr-abl (e1a2) in 32Dp190/e1a2 cells about 24 h following second siRNA treatment; the level of GAPDH served as loading control. Lane 1: EPC, Lane 2: BAF9, Lane 3: BAF19, Lane 4: BAF22, Lane 5: BAF24. […] Values are means +/− SD of triplicates.
# […] Cell survival was then measured by MTT assay as described (Van der Kuip H, et al., Blood. 2001, 98:1532)
# (§2) siRNA-transfection: siRNAs were transfected into the murine cell lines 32Dp210Bcr-Abl-e14a2, -e13a2, 32Dp190Bcr-Abl-e1a2 and the human leukemic cell line MEG-01 using electroporation. Cell density was adjusted to 2.5-5×10^6/ml in RPMI/10% FCS. 800 μl of this cell suspension were mixed with siRNA in a 4 mm electroporation cuvette. Cells were electroporated by means of an EasyJect electroporator (peqlab, Erlangen, Germany) using a single-pulse protocol (250 V, 1800 μF, 8.). This treatment was repeated in intervals of 24 hours as indicated.
# In 32Dp210Bcr-Abl-e14a2, -e13a2 and 32Dp190Bcr-Abl-e1a2 inhibition of Bcr-Abl can be compensated by addition of exogenous growth factor to the medium. […]
# [2] = system: p190Bcr-Abl (e1a2); experiment: Western blot of Bcr-Abl protein in 32Dp190/e1a2 cells; format: cell-based, murine; conditions: 32Dp190Bcr-Abl (e1a2) cells, treated twice at intervals of 24 h
# Experimental: as §1
# (§3) Protein assay: Western blot analysis was performed ˜24 h following the last siRNA -treatment or ˜96 hours following transfection with the pSUPER siRNA-expression vector as described (Goetz A W, et al., Cancer Res. 2001, 61:7635)
# as §2, with “indicated. […]” for “indicated.”
# [3] = system: p190Bcr-Abl; experiment: Western blot of p190Bcr-Abl in SUP-B15 cells; format: cell-based, human; conditions: 3 treatments at intervals of 24 hours, compared to EPC or BAF19 control
# Experimental: FIG. 3: Cells from the human B cell precursor leukemia cell line SUP-B15 (ACC 389; DSMZ, Braunschweig, breakpoint variant e1a2) were treated as described for […] with an e1a2-specific siRNA (BAF22) or with siRNA directed to another breakpoint variant (BAF19, specific for e13a2) as a control.
# as §2
# SUP-B15 cells were treated by electroporation as described above with an e1a2-specific siRNA (BAF22) or with siRNA directed to another breakpoint variant (BAF19) as a control.
# [4] = system: K562 cells; conditions: 48 h treatment with imatinib mesylate alone (Wilda et al.); cited from earlier work
# [5] = system: 32Dp210-H396P cells; experiment: Sensitivity to imatinib mesylate of 32Dp210-H396P cells; format: cell-based, murine; conditions: 32D cells expressing Bcr-Abl-H396P
# [6] = system: 32Dp210-T315I cells; experiment: Sensitivity to imatinib mesylate of 32Dp210-T315I cells; format: cell-based, murine; conditions: 32D cells expressing Bcr-Abl-T315I
# [7] = system: 32Dp210/e13a2 cells; experiment: MTT viability assay in 32Dp210/e13a2 cells; format: cell-based, murine; conditions: 32Dp210Bcr-Abl (e13a2) cells; for viability: repeated (up to three) treatments; for viability relative to controls (EPC): 48 h following 3rd treatment
# Experimental: (§4) FIGS. 1A-1B: ˜2.5 Mio 32Dp210/e13a2 cells have been electroporated 1-3×at intervals of 24 h with the indicated siRNA. BAF3/BAF15/BAF17/BAF19: bcr-abl-e13a2-specific siRNAs; BAF9: bcr-abl-e14a2-specific siRNA, served as control; EPC: electroporation control. FIG. 1A: Western blot analysis of p210^Bcr-abl (e13a2) in 32Dp210/e13a2˜24 h following siRNA treatment; the level of GAPDH served as loading control. Lane 1: EPC, Lane 2: BAF9, Lane 3: BAF3, Lane 4: BAF15, Lane 5: BAF17, Lane 6: BAF19. […] Values are means +/− SD of triplicates.
# (§5) Survival Assay: Following the last siRNA treatment cells were seeded in 96 well plates and cultivated for another ˜48 hours. Cell survival was then measured by MTT assay as described (Van der Kuip H, et al., Blood. 2001, 98:1532)
# as §2
# (§6) In 32Dp210Bcr-Abl-e14a2, -e13a2 and 32Dp190Bcr-Abl-e1a2 inhibition of Bcr-Abl can be compensated by addition of exogenous growth factor to the medium. Therefor, recombinant murine IL-3, (1 ng/ml) was added to the growth medium during siRNA treatment of these cell lines. Following the last siRNA treatment cells were washed and factor deprived before starting the different examination procedures (Western blot/MTT).
# [8] = system: p210Bcr-Abl (e13a2); experiment: Western blot of Bcr-Abl protein in 32Dp210/e13a2 cells; format: cell-based, murine; conditions: 32Dp210Bcr-Abl (e13a2) cells, repeated electroporation
# Experimental: as §4, §3, §2, §6
# [9] = system: 32Dp210/e14a2 cells; experiment: Total cell number 48 h after last siRNA treatment, 32Dp210/e14a2 cells; format: cell-based, murine; conditions: start 2.5 Mio cells
# Experimental: as §2
# In order to determine optimal conditions for RNA interference, we repeated the siRNA treatment one to four times at intervals of 24 hours. […] Despite its short duration, the effect was still sufficient to reduce the viability of cells to approximately 59% relative to control cells (EPC, 100%). […] The residual viability level of the cells treated four times with BAF7 measured in MTT assay was not more than ˜2.5% of the level of the control cells. Identical results were obtained when cell counts 48 hours following last treatment were used for assessment of the biological effect. Both mock-treated and cells treated with a mismatch siRNA still increased their cell number from 2.5 Mio cells to more than 25 Mio cells within 48 hours. […] The lower efficiency of BAF1 became even more obvious when the biological effect of BAF1 was assessed.
# [10] = system: MEG-01 cells; experiment: MTT viability assay in MEG-01 cells; format: cell-based, human; conditions: treated three times
# Experimental: as §5, §2
# (§7) All three major Bcr-Abl oncogene variants -e14a2, -e13a2 and -e1a2 can be targeted by RNA interference. To identify effective siRNAs for inhibition of the second major Bcr-Abl fusion gene relevant in CML, Bcr-Abl-e13a2, we treated 32Dp210Bcr-Abl (e13a2) cells with four siRNAs (BAF3, BAF15, BAF17, BAF19) targeting different sequences of the Bcr-Able13a2 mRNA breakpoint. As a control we used a siRNA directed to the Bcr-Abl-e14a2 fusion sequence (BAF9). […] Despite the considerable overlap in their target sequence, BAF17 and BAF3 had no effect Bcr-Abl protein levels. […]
# [11] = system: Bcr-Abl-e13a2; experiment: Western blot of Bcr-Abl protein in MEG-01 cells; format: cell-based, human; conditions: treated three times, compared to mismatch control BAF28
# Experimental: as §3, §2, §7
# [12] = system: 32Dp210/e14a2 cells; experiment: MTT viability assay in 32Dp210/e14a2 cells after siRNA electroporation; format: cell-based, murine; conditions: treated four times, MTT
# Experimental: as §5, §2, §6
# [13] = system: p210Bcr-Abl (e14a2); experiment: Western blot of Bcr-Abl protein in 32Dp210/e14a2 cells after siRNA electroporation; format: cell-based, murine; conditions: 32Dp210Bcr-Abl (e14a2) cells
# Experimental: as §3, §2, §6
# We used three murine hematopoetic 32D cell lines expressing either p210Bcr-Abl (e14a2), p210Bcr-Abl (e13a2) or p190Bcr-Abl (e1a2) to study the effectiveness of siRNAs to silence each of these human Bcr-Abl fusion breakpoint variants. In addition, experiments were performed in human Ph+leukemia cells (K562, MEG-01). All siRNAs used were directed to breakpoints of the Bcr and Abl sequence of the respective Bcr-Abl mRNA. RNAi-efficiency was assayed via analysis of Bcr-Abl protein levels and by monitoring the biological effect using MTT viability assay.
# p210Bcr-Abl (e13a2), sequence (P11274+P00519 fused): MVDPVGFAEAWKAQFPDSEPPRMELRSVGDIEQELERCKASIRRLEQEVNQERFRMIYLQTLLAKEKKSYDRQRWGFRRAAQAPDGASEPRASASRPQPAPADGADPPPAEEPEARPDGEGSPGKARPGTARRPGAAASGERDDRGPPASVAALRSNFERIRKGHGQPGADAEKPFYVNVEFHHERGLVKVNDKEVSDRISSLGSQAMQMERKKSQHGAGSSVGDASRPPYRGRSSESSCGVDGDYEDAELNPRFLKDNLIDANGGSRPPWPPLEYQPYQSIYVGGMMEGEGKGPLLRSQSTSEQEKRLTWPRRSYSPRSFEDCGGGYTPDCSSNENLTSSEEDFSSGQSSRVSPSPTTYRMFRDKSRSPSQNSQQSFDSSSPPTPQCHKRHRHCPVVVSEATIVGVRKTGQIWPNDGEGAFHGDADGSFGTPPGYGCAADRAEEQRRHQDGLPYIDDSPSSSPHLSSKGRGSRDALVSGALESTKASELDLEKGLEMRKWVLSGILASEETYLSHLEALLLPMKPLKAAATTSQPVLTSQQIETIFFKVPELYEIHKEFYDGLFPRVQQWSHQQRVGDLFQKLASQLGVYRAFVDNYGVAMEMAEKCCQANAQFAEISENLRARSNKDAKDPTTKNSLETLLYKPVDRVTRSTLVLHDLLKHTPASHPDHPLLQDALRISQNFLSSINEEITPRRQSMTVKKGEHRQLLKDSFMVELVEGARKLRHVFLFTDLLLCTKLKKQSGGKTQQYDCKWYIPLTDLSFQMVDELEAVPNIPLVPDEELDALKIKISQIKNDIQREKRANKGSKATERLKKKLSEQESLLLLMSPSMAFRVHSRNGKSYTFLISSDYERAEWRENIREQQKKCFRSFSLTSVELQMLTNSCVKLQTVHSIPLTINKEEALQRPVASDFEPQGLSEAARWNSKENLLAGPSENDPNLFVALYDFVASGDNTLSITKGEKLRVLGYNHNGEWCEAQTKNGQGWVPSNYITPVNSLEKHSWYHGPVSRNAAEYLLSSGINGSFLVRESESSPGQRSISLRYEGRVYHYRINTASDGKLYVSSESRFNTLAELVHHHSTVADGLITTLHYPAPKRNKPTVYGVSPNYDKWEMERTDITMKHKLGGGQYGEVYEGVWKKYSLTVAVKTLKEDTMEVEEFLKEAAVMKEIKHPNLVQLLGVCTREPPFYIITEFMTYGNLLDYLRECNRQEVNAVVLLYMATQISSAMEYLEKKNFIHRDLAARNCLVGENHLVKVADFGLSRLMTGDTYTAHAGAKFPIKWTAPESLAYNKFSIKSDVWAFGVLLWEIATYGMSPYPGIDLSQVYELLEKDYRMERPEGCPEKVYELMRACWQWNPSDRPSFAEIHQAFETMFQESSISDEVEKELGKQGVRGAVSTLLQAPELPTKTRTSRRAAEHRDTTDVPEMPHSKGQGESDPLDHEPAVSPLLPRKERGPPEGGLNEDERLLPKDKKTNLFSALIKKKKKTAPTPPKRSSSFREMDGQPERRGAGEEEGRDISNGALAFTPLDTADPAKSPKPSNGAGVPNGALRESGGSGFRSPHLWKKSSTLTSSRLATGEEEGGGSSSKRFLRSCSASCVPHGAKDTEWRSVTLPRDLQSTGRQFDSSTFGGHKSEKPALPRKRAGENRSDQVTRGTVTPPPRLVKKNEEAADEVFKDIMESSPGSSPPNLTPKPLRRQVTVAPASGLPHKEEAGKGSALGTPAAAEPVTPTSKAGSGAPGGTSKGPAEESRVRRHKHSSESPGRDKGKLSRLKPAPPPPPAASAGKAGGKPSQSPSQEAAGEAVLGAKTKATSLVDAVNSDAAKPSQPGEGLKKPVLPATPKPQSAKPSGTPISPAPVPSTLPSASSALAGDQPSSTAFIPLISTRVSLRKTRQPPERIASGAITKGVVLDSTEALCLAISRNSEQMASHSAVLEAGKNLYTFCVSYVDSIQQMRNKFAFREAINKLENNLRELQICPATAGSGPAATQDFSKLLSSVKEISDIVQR
# p210Bcr-Abl (e14a2), sequence (P11274+P00519 fused): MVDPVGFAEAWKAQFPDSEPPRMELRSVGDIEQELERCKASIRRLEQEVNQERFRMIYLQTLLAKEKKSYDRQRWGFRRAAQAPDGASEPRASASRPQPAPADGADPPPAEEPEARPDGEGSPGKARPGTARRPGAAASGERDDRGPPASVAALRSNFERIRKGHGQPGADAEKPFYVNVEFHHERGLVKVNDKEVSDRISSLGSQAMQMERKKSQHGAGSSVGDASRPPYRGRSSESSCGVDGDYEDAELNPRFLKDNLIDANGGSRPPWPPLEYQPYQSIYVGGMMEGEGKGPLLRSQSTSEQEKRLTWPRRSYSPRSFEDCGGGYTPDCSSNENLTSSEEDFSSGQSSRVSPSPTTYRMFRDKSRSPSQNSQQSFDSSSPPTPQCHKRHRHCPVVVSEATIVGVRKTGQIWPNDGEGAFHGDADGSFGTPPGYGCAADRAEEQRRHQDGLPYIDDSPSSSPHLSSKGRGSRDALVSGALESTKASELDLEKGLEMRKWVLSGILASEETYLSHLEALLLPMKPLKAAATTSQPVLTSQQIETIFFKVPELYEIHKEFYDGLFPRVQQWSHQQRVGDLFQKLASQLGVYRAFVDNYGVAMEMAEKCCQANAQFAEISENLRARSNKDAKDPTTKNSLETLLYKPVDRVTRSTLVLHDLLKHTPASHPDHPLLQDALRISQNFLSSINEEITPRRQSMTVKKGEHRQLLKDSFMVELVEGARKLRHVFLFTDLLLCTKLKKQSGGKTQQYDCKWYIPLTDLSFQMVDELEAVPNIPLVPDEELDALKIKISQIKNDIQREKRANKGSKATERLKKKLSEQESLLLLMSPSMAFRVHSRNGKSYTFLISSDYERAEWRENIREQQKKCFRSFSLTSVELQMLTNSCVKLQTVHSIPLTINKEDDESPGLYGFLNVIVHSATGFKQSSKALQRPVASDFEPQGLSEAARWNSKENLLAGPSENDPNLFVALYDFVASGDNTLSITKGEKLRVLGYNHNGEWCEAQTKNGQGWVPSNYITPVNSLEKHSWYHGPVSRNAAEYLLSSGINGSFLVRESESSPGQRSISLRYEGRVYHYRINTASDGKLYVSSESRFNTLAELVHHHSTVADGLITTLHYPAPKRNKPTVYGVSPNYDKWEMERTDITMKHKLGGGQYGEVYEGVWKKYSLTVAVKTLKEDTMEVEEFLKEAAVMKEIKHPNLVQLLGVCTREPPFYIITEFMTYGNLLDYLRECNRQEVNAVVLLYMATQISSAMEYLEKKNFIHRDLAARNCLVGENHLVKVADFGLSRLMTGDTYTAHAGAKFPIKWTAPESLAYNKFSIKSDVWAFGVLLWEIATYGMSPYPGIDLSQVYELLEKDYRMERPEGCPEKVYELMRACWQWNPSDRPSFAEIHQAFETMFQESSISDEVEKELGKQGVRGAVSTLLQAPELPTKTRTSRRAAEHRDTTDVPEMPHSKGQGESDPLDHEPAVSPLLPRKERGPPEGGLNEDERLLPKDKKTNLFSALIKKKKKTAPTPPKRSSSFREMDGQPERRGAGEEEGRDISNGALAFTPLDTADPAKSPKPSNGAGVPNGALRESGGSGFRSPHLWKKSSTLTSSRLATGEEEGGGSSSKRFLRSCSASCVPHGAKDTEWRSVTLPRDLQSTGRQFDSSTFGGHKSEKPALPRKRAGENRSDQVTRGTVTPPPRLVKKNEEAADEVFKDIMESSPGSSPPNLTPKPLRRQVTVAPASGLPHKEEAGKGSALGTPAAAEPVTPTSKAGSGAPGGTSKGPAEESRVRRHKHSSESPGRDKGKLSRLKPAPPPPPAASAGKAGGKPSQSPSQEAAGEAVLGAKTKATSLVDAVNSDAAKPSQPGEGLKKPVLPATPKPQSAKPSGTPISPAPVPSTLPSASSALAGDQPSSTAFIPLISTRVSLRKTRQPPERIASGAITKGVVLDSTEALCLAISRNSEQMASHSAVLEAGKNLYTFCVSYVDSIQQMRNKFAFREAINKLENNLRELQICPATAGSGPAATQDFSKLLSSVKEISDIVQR
compound,measurement,setting,value
"BAF22: siRNA duplex, SEQ ID No. 19/28, specific for Bcr-Abl-e1a2 (chain 1 GGAGACGCAGAAGCCCUUCAG; chain 2 CUGAAGGGCUUCUGCGUCUCCAU; listed as RNA, chemistry not given here)",viability,"[1]; 32Dp190/e1a2 cells, repeated treatment, ~40 h after second treatment",reduction of viability
same,viability compared to EPC (100%),"[1]; 32Dp190Bcr-Abl (e1a2) cells, after 2nd treatment",15%
same,Bcr-Abl protein levels / Bcr-Abl-e1a2 gene expression,[2],actively silenced Bcr-Abl-e1a2 gene expression; also recorded: significant down-regulation
same,p190Bcr-Abl protein levels / Bcr-Abl-e1a2 expression,[3],effectively silenced Bcr-Abl-e1a2 expression; also recorded: significantly reduced
"Cc1ccc(NC(=O)c2ccc(CN3CCN(C)CC3)cc2)cc1Nc1nccc(-c2cccnc2)n1 [imatinib mesylate, Imatinib mesylate]",cells undergoing apoptosis,[4],8%
same,loss of sensitivity to imatinib mesylate compared to 32Dp210-wt,[5],~4.7 fold
same,resistance to imatinib mesylate,[6],complete resistance
"BAF3: siRNA duplex, SEQ ID No. 9/10, specific for Bcr-Abl-e13a2 (chain 1 UAAGGAAGAAGCCCUUCAGCG; chain 2 CGCUGAAGGGCUUCUUCCUUAUU; listed as RNA, chemistry not given here)",viability,[7],did also not interfere with the viability
same,Bcr-Abl protein levels,[8],completely ineffective; also recorded: no effect
"BAF24: siRNA duplex, SEQ ID No. 21/22, specific for Bcr-Abl-e1a2 (chain 1 GACGCAGAAGCCCUUCAGCGG; chain 2 CCGCUGAAGGGCUUCUGCGUCUC; listed as RNA, chemistry not given here)",Bcr-Abl protein levels / Bcr-Abl-e1a2 gene expression,[2],no effect at all
"BAF17: siRNA duplex, SEQ ID No. 13/26, specific for Bcr-Abl-e13a2 (chain 1 GGAAGAAGCCCUUCAGCGGCC; chain 2 GGCCGCUGAAGGGCUUCUUCCUU; listed as RNA, chemistry not given here)",viability,[7],did also not interfere with the viability
same,Bcr-Abl protein levels,[8],no effect
"BAF8: siRNA duplex, SEQ ID No. 3/4, Bcr-Abl-e14a2, mismatch control to BAF7 (three mismatches) (chain 1 CAGUGUUCAUAAGCCGUUCAG; chain 2 CUGAACGGCUUAUGAACACUGCU; chemistry not given here)",total cell number 48 h following last treatment,[9],more than 25 Mio cells
"BAF19: siRNA duplex, SEQ ID No. 15/27, specific for Bcr-Abl-e13a2 (chain 1 AUCAAUAAGGAAGAAGCCCUU; chain 2 AAGGGCUUCUUCCUUAUUGAUGG; listed as RNA, chemistry not given here)",viability relative to controls (EPC),[7],~14%
same,viability,[7],almost complete loss of viability; also recorded: reduction of viability
same,"viability compared to control cells (EPC, 100%)",[10],~28%
same,Bcr-Abl protein levels / Bcr-Abl-e13a2 expression,[11],effectively silenced Bcr-Abl-e13a2 expression; also recorded: significant loss of Bcr-Abl protein levels
same,Bcr-Abl protein levels,[8],effective down-regulation
"BAF1: siRNA duplex, SEQ ID No. 7/8, single mismatch compared to BAF7 (chain 1 CAGAGUUGAAAAGCCCUUCAG; chain 2 CUGAAGGGCUUUUCAACUCUGCU; listed as RNA, chemistry not given here) [reference compound]",viability relative to EPC,[12],52%
same,down-regulation of Bcr-Abl protein levels compared to BAF7,[13],less efficient down-regulation
"BAF15: siRNA duplex, SEQ ID No. 11/25, specific for Bcr-Abl-e13a2 (chain 1 AAUAAGGAAGAAGCCCUUCAG; chain 2 CUGAAGGGCUUCUUCCUUAUUGA; listed as RNA, chemistry not given here)",viability relative to controls (EPC),[7],~10%
same,viability,[7],almost complete loss of viability; also recorded: reduction of viability
same,Bcr-Abl protein levels,[8],effective down-regulation
